From patent US8143290B2, “Chemical compounds 572” (AstraZeneca AB, priority 2006, dated 2012)

Target: T1, recombinant human GR (Homo sapiens, UniProt P04150)
T1 construct: purchased Panvera/Invitrogen P2812 (kit P2893)
T1 sequence (P04150 1-777): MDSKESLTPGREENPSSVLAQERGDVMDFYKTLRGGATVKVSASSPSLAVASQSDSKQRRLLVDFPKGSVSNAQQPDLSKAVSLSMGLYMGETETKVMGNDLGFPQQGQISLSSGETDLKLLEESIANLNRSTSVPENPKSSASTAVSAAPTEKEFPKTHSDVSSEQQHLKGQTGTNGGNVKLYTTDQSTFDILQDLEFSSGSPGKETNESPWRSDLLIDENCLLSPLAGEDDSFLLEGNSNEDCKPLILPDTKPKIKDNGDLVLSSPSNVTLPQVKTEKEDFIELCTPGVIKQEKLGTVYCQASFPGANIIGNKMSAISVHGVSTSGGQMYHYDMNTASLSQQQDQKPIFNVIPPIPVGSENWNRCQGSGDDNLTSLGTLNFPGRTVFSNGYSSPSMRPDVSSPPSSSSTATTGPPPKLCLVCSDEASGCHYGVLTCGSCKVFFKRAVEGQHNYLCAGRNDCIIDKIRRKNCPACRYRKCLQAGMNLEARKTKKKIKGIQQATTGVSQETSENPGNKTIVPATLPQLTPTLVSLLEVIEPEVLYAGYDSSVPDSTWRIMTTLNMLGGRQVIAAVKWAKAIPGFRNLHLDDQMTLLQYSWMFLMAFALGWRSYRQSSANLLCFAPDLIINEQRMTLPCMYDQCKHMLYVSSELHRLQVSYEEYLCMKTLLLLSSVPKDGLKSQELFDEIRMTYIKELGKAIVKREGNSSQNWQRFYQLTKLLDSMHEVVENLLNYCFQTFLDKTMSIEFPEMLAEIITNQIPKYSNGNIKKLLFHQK
Experiment: Human Glucocorticoid Receptor (GR) Assay, fluorescence polarization
Format: binding
Details: GS Red tracer, incubated 2 h at r.t., XLfit model 205, read-out: GRhuFL_FP_v2 Mean IC50
Method in brief: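 Fluorescence polarization kit assay: recombinant GR and GS Red fluorescent ligand with Stabilizing Peptide and DTT in potassium phosphate/sodium molybdate/EDTA screening buffer. Plates incubated 2 h in the dark at r.t.; DMSO served as 0% and dexamethasone as 100% control.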

SMILES	IC50 [nM]
C[C@H](NC(=O)C(F)(F)F)[C@H](Oc1ccc2c(cnn2-c2ccc(F)cc2)c1)c1ccc(Cl)cc1 [Example 160, N-[(1R,2S)-1-(4-chlorophenyl)-1-[1-(4-fluorophenyl)indazol-5-yl]oxy-propan-2-yl]-2,2,2-trifluoro-acetamide]	4.1
C[C@H](NC(=O)C(F)(F)F)[C@H](Oc1ccc2c(cnn2-c2ccc(F)cc2)c1)c1cc(F)cc(Cl)c1 [Example 161, N-[(1R,2S)-1-(3-chloro-5-fluoro-phenyl)-1-[1-(4-fluorophenyl)indazol-5-yl]oxy-propan-2-yl]-2,2,2-trifluoro-acetamide]	8.5
C[C@H](NC(=O)C(F)(F)F)[C@H](Oc1ccc2c(cnn2-c2ccc(F)cc2)c1)c1ccc(C(C)(C)C)cc1 [Example 163, 2,2,2-trifluoro-N-[(1R,2S)-1-[1-(4-fluorophenyl)indazol-5-yl]oxy-1-(4-tert-butylphenyl)propan-2-yl]acetamide]	16
COc1ccccc1[C@@H](Oc1ccc2c(cnn2-c2ccc(F)cc2)c1)[C@H](C)NC(=O)C(F)(F)F [Example 164, 2,2,2-trifluoro-N-[(1R,2S)-1-[1-(4-fluorophenyl)indazol-5-yl]oxy-1-(2-methoxyphenyl)propan-2-yl]acetamide]	4.2
CCCc1ccc([C@@H](Oc2ccc3c(cnn3-c3ccc(F)cc3)c2)[C@H](C)NC(=O)C(F)(F)F)cc1 [Example 165, 2,2,2-trifluoro-N-[(1R,2S)-1-[1-(4-fluorophenyl)indazol-5-yl]oxy-1-(4-propylphenyl)propan-2-yl]acetamide]	6.4
Cc1c(F)cccc1[C@@H](Oc1ccc2c(cnn2-c2ccc(F)cc2)c1)[C@H](C)NC(=O)C(F)(F)F [Example 167, 2,2,2-trifluoro-N-[(1R,2S)-1-(3-fluoro-2-methyl-phenyl)-1-[1-(4-fluorophenyl)indazol-5-yl]oxy-propan-2-yl]acetamide]	8.6
Cc1cc([C@@H](Oc2ccc3c(cnn3-c3ccc(F)cc3)c2)[C@H](C)NC(=O)C(F)(F)F)ccc1Cl [Example 168, N-[(1R,2S)-1-(4-chloro-3-methyl-phenyl)-1-[1-(4-fluorophenyl)indazol-5-yl]oxy-propan-2-yl]-2,2,2-trifluoro-acetamide]	6.2
C[C@H](NC(=O)C(F)(F)F)[C@H](Oc1ccc2c(cnn2-c2ccc(F)cc2)c1)c1ccc(Cl)c(F)c1 [Example 170, N-[(1R,2S)-1-(4-chloro-3-fluoro-phenyl)-1-[1-(4-fluorophenyl)indazol-5-yl]oxy-propan-2-yl]-2,2,2-trifluoro-acetamide]	7.1
Cc1ccc([C@@H](Oc2ccc3c(cnn3-c3ccc(F)cc3)c2)[C@H](C)NC(=O)C(C)(C)C)cc1C [Example 171, N-[(1R,2S)-1-(3,4-dimethylphenyl)-1-[1-(4-fluorophenyl)indazol-5-yl]oxy-propan-2-yl]-2,2-dimethyl-propanamide]	5.6
C[C@H](NC(=O)C(C)(C)C)[C@H](Oc1ccc2c(cnn2-c2ccc(F)cc2)c1)c1ccc(F)c(F)c1 [Example 172, N-[(1R,2S)-1-(3,4-difluorophenyl)-1-[1-(4-fluorophenyl)indazol-5-yl]oxy-propan-2-yl]-2,2-dimethyl-propanamide]	4.3
C[C@H](NC(=O)C(C)(C)C)[C@H](Oc1ccc2c(cnn2-c2ccc(F)cc2)c1)c1cccc(F)c1 [Example 174, N-[(1R,2S)-1-(3-fluorophenyl)-1-[1-(4-fluorophenyl)indazol-5-yl]oxy-propan-2-yl]-2,2-dimethyl-propanamide]	4.1
COc1ccc([C@@H](Oc2ccc3c(cnn3-c3ccc(F)cc3)c2)[C@H](C)NC(=O)C(C)(C)C)cc1F [Example 177, N-[(1R,2S)-1-(3-fluoro-4-methoxy-phenyl)-1-[1-(4-fluorophenyl)indazol-5-yl]oxy-propan-2-yl]-2,2-dimethyl-propanamide]	3.9
C[C@H](NC(=O)C(C)(C)C)[C@H](Oc1ccc2c(cnn2-c2ccc(F)cc2)c1)c1cccc(Cl)c1 [Example 178, N-[(1R,2S)-1-(3-chlorophenyl)-1-[1-(4-fluorophenyl)indazol-5-yl]oxy-propan-2-yl]-2,2-dimethyl-propanamide]	3.9
Cc1cc(F)ccc1[C@@H](Oc1ccc2c(cnn2-c2ccc(F)cc2)c1)[C@H](C)NC(=O)C(C)(C)C [Example 179, N-[(1R,2S)-1-(4-fluoro-2-methyl-phenyl)-1-[1-(4-fluorophenyl)indazol-5-yl]oxy-propan-2-yl]-2,2-dimethyl-propanamide]	3.7
C[C@H](NC(=O)C(C)(C)C)[C@H](Oc1ccc2c(cnn2-c2ccc(F)cc2)c1)c1ccc(Cl)cc1 [Example 183, N-[(1R,2S)-1-(4-chlorophenyl)-1-[1-(4-fluorophenyl)indazol-5-yl]oxy-propan-2-yl]-2,2-dimethyl-propanamide]	4.6
C[C@H](NC(=O)C(C)(C)C)[C@H](Oc1ccc2c(cnn2-c2ccc(F)cc2)c1)c1cc(F)cc(Cl)c1 [Example 184, N-[(1R,2S)-1-(3-chloro-5-fluoro-phenyl)-1-[1-(4-fluorophenyl)indazol-5-yl]oxy-propan-2-yl]-2,2-dimethyl-propanamide]	5.1
C[C@H](NC(=O)C(C)(C)C)[C@H](Oc1ccc2c(cnn2-c2ccc(F)cc2)c1)c1ccc(C(C)(C)C)cc1 [Example 186, N-[(1R,2S)-1-[1-(4-fluorophenyl)indazol-5-yl]oxy-1-(4-tert-butylphenyl)propan-2-yl]-2,2-dimethyl-propanamide]	6.6

The remaining molecules from weak to strong by IC50, led by results:

IC50 [nM]	SMILES
14	Cc1cc(C)c([C@@H](Oc2ccc3c(cnn3-c3ccc(F)cc3)c2)[C@H](C)NC(=O)C(F)(F)F)cc1C [Example 162, 2,2,2-trifluoro-N-[(1R,2S)-1-[1-(4-fluorophenyl)indazol-5-yl]oxy-1-(2,4,5-trimethylphenyl)propan-2-yl]acetamide]
8.1	Cc1cc(Cl)ccc1[C@@H](Oc1ccc2c(cnn2-c2ccc(F)cc2)c1)[C@H](C)NC(=O)C(F)(F)F [Example 169, N-[(1R,2S)-1-(4-chloro-2-methyl-phenyl)-1-[1-(4-fluorophenyl)indazol-5-yl]oxy-propan-2-yl]-2,2,2-trifluoro-acetamide]
6.9	C[C@H](NC(=O)C(F)(F)F)[C@H](Oc1ccc2c(cnn2-c2ccc(F)cc2)c1)c1ccc2c(c1)OCO2 [Example 166, N-[(1R,2S)-1-benzo[1,3]dioxol-5-yl-1-[1-(4-fluorophenyl)indazol-5-yl]oxy-propan-2-yl]-2,2,2-trifluoro-acetamide]
6.8	Cc1ccc(F)cc1[C@@H](Oc1ccc2c(cnn2-c2ccc(F)cc2)c1)[C@H](C)NC(=O)C(C)(C)C [Example 180, N-[(1R,2S)-1-(5-fluoro-2-methyl-phenyl)-1-[1-(4-fluorophenyl)indazol-5-yl]oxy-propan-2-yl]-2,2-dimethyl-propanamide]
5.5	COc1c(C)cc([C@@H](Oc2ccc3c(cnn3-c3ccc(F)cc3)c2)[C@H](C)NC(=O)C(C)(C)C)cc1C [Example 182, N-[(1R,2S)-1-[1-(4-fluorophenyl)indazol-5-yl]oxy-1-(4-methoxy-3,5-dimethyl-phenyl)propan-2-yl]-2,2-dimethyl-propanamide]
5.5	Cc1cccc([C@@H](Oc2ccc3c(cnn3-c3ccc(F)cc3)c2)[C@H](C)NC(=O)C(C)(C)C)c1 [Example 185, N-[(1R,2S)-1-[1-(4-fluorophenyl)indazol-5-yl]oxy-1-(3-methylphenyl)propan-2-yl]-2,2-dimethyl-propanamide]
4.9	Cc1ccc([C@@H](Oc2ccc3c(cnn3-c3ccc(F)cc3)c2)[C@H](C)NC(=O)C(C)(C)C)c(C)c1 [Example 176, N-[(1R,2S)-1-(2,4-dimethylphenyl)-1-[1-(4-fluorophenyl)indazol-5-yl]oxy-propan-2-yl]-2,2-dimethyl-propanamide]
4.6	Cc1ccc([C@@H](Oc2ccc3c(cnn3-c3ccc(F)cc3)c2)[C@H](C)NC(=O)C(C)(C)C)cc1F [Example 173, N-[(1R,2S)-1-(3-fluoro-4-methyl-phenyl)-1-[1-(4-fluorophenyl)indazol-5-yl]oxy-propan-2-yl]-2,2-dimethyl-propanamide]
4.3	Cc1ccc(C)c([C@@H](Oc2ccc3c(cnn3-c3ccc(F)cc3)c2)[C@H](C)NC(=O)C(C)(C)C)c1 [Example 175, N-[(1R,2S)-1-(2,5-dimethylphenyl)-1-[1-(4-fluorophenyl)indazol-5-yl]oxy-propan-2-yl]-2,2-dimethyl-propanamide]
3.2	COc1ccc(F)cc1[C@@H](Oc1ccc2c(cnn2-c2ccc(F)cc2)c1)[C@H](C)NC(=O)C(C)(C)C [Example 181, N-[(1R,2S)-1-(5-fluoro-2-methoxy-phenyl)-1-[1-(4-fluorophenyl)indazol-5-yl]oxy-propan-2-yl]-2,2-dimethyl-propanamide]
